Data from ChEMBL document CHEMBL1201862, “PubChem BioAssay data set” (2004).
Calls of active or inactive are those of the source.

Columns and labels:
[1] = test system: Streptococcus sp. 'group A'; assay: Streptococcus pyogenes SK(-)GAS viability under kanamycin – luminescence, BacTiterGlo, confirmation, counter-screen for streptokinase expression inhibitor project, dose response (AID 1900); assay type: functional, organism-based
Streptokinase A = biological target: T1, Streptokinase A (Streptococcus pyogenes serotype M1, UniProt P10520); assay: viability-normalized secreted streptokinase activity reduction – plasminogen activation absorbance, OD405, dose response (AID 1914); assay type: functional, Streptococcus pyogenes M1 GAS;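 also: secreted streptokinase activity via plasminogen activation per viability signal from cell pellet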
T1 sequence (P10520 whole entry): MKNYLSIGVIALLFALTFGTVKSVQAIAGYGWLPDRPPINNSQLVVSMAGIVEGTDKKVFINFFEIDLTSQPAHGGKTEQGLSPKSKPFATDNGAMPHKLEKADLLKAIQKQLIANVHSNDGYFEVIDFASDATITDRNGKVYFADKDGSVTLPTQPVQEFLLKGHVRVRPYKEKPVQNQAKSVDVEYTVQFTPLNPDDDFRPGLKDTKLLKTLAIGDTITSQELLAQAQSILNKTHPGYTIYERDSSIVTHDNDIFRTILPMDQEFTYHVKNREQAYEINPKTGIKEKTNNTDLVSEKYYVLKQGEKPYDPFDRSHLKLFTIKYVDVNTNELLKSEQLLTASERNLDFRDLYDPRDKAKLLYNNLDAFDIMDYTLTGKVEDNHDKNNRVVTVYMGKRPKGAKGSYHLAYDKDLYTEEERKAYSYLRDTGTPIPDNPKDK

[2] = viability loss in Vero cells – cytotoxicity control for Vif-APOBEC3G degradation inhibitor project, dose response (AID 1117358); assay type: functional; settings: Vero
[3] = biological target: T2, RNA-binding protein pos-1 (Caenorhabditis elegans, UniProt G5EF15); assay: disruptors of C. elegans POS-1 RNA interaction – biochemical, fluorescence polarization, dose response (AID 1964);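 also: purified POS-1 fused to maltose binding protein made in E. coli; potency of compounds blocking POS-1 binding to fluorescent RNA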
T2 sequence (G5EF15 whole entry): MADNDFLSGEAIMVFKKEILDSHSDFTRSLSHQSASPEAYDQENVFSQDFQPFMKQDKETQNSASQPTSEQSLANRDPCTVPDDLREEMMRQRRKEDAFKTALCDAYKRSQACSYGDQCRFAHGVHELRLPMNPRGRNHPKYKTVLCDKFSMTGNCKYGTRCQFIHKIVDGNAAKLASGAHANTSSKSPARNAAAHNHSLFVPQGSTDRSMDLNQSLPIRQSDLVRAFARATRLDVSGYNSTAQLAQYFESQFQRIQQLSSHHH

Streptococcus = assay: GAS UMAA2166 growth inhibition – luminescence, BacTiterGlo, counter-screen for streptokinase expression inhibitor project, dose response (AID 1915); assay type: functional, organism-based;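 also: potency for reduction of bacterial viability or growth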
[4] = biological target: Sphingosine 1-phosphate receptor 2 (Homo sapiens, UniProt O95136); assay: Dose Response Cell Based Assay for Antagonists of the S1P2 Receptor. [Related pubchem assays: 856, 736 ]; assay type: functional
Sphingosine 1-phosphate receptor 2, sequence (O95136 whole entry): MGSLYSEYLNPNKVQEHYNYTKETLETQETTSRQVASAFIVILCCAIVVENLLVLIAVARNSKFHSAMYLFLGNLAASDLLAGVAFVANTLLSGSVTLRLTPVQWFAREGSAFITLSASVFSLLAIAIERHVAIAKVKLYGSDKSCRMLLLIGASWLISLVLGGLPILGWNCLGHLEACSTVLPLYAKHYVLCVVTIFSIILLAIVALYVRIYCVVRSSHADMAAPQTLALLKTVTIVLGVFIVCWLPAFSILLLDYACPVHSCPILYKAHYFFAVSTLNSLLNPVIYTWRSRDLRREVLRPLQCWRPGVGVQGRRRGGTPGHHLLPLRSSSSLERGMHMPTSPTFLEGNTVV

[5] = biological target: T3, Zinc finger protein mex-5 (Caenorhabditis elegans, UniProt Q9XUB2); assay: potency of MEX-5 RNA-binding blockers – biochemical, C. elegans, fluorescence polarization, dose response (AID 1960)
T3 sequence (Q9XUB2 whole entry): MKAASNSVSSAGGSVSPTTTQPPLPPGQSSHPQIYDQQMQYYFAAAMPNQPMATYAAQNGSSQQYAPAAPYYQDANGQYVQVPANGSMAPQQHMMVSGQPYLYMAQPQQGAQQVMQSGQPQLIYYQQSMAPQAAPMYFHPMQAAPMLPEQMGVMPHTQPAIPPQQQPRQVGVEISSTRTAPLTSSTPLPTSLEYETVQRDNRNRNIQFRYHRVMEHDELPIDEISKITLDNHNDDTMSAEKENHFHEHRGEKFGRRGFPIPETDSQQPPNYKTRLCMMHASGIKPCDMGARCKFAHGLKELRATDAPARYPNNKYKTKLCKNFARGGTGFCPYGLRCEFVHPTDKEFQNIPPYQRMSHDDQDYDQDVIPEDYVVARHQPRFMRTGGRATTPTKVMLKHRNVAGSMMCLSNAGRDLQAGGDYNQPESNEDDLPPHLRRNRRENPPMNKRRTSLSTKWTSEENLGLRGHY

Danio rerio = assay: In Vivo Angiogenesis Dose-Response Confirmation. [Related pubchem assays: 732 (Assay preceding this confirmatory assay.)]; assay type: functional, organism-based
[6] = Luminescence Cell-Based Dose Confirmation to Identify Activators of 5'UTR Stem-Loop Driven Alpha-Synuclein mRNA Translation in H4 Neuroglioblastoma Cells. [Related pubchem assays: 1829 (Project Summary), 1814 (Primary HTS)]; assay type: functional
[7] = Luminescence Cell-Based Dose Response to Identify Activators of 5'UTR Stem-Loop Driven Prion Protein mRNA Translation in H4-C Neuroglioblastoma Cells. [Related pubchem assays: 1829 (Project Summary), 1814 (Primary HTS)]; assay type: functional
H4 = assay: Luminescence Cell-Based Dose Response HTS to Identify Activators of 5'UTR Stem-Loop Driven Prion Protein mRNA Translation in H4 Neuroglioblastoma Cells. [Related pubchem assays: 1829 (Project Summary), 1814 (Primary HTS)]; assay type: functional; settings: Homo sapiens
[8] = Luminescence Cell-Based Dose Response to Identify Activators of Luciferase Translation or Activity in H4-C Neuroglioblastoma Cells. [Related pubchem assays: 1829 (Project Summary), 1814 (Primary HTS)]; assay type: functional
[9] = Luminescence Cell-Based Dose Response HTS to Identify Activators of Luciferase Translation or Activity in H4 […] Cells. [Related pubchem assays: 1829 (Project Summary), 1814 (Primary HTS)]; assay type: functional
[10] = M. tuberculosis growth inhibition, HTS (AID 449762); assay type: functional
Galanin receptor type 2 = Galanin receptor type 2 (Homo sapiens, UniProt O43603); assay: Dose Response cell-based high-throughput screening assay to identify agonists of galanin receptor 2 (GALR2). [Related pubchem assays: 864 ]; assay type: functional
Galanin receptor type 2, sequence (O43603 whole entry): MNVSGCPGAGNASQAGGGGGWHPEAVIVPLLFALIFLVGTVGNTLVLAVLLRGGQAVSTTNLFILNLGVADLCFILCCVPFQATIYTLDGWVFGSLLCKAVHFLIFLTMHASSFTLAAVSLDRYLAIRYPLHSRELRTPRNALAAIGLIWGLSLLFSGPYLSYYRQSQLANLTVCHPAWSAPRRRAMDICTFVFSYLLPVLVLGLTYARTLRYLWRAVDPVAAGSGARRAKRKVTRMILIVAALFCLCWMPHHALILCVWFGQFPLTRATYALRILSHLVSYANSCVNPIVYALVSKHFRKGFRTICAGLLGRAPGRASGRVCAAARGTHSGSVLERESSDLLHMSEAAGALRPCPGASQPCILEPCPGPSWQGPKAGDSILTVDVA

[11] = biological target: Heat shock protein HSP 90-alpha (Homo sapiens, UniProt P07900); assay type: functional, organism-based
Large T antigen = Large T antigen (Simian virus 40, UniProt P03070); assay type: functional, Betapolyomavirus macacae;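 also: Confirmatory-stage PubChem screen for compounds that inhibit SV40 T antigen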
Large T antigen, sequence (P03070 whole entry): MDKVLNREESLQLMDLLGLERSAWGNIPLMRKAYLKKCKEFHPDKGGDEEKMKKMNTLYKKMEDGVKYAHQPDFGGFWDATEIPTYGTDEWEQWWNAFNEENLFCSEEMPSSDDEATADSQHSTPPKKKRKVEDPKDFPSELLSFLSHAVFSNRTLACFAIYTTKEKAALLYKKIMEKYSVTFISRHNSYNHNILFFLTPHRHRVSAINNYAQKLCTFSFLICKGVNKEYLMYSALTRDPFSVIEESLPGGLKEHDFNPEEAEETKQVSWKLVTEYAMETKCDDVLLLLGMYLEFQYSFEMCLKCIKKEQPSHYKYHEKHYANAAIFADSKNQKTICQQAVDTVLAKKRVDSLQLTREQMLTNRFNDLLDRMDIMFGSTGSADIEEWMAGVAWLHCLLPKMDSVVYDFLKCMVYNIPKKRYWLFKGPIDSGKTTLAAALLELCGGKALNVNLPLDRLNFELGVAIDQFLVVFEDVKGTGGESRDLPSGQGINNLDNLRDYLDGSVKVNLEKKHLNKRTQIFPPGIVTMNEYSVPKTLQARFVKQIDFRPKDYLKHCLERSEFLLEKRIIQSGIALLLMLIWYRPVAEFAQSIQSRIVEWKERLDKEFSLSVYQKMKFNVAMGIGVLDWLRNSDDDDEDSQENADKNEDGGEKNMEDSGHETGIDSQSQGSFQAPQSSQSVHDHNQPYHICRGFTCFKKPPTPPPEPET

[12] = viability of PTEN-deleted HCT116 cells – cell-based, HCT116 PTEN knockout, dose response (AID 1047); assay type: functional;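 also: HCT116 colon tumor cells with PTEN knocked out; cells exposed to compound for 60 hours before readout; potency for loss of cell viability measured by luminescence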
[13] = biological target: T4, Mannose-6-phosphate isomerase (Homo sapiens, UniProt P34949); assay: MPI inhibition at elevated mannose 6-phosphate – biochemical, fluorescence intensity, high mannose 6-phosphate, primary screen (AID 1220)
T4 sequence (P34949 whole entry): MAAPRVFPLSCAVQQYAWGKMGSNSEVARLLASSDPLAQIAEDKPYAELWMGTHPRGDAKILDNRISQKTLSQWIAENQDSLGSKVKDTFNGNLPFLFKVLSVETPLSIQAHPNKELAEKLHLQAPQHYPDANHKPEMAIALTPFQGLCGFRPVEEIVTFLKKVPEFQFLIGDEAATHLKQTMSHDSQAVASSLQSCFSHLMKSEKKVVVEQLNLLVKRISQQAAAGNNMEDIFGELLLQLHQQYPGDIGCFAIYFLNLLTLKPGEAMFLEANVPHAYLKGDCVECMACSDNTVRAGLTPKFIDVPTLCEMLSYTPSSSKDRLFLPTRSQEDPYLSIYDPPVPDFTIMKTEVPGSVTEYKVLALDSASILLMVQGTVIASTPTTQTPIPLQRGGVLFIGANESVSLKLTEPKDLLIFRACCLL

[14] = viability of HCT116 lacking mutant beta-catenin – cell-based, human colon tumor, dose response (AID 1045); assay type: functional;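 also: HCT116 colon tumor cells with beta catenin knocked out; cells exposed to compound for 60 hours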
INS1 = assay: INS-1E survival protection against cytokine death – cell-based, luminescence, retest, dose response (AID 449756); assay type: functional; settings: Rattus norvegicus;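 also: cell death triggered by IL-1 beta plus TNF-alpha plus IFN-gamma mixture; protective hits raise ATP signal compared with cytokine alone wells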

In the case of `Cc1cccc(NC2=Nc3ccccc3N3C2=Nc2c(c(C)nn2-c2ccccc2)C3c2ccc(O)c(O)c2)c1` (stereo unspecified), the EC50 [1] is reported as 1.54 µM (active), the EC50 (Streptokinase A) is reported as > 150 µM (not active) and the CC50 [2] is reported as 17.4 µM (active). The EC50 [3] was 46.4 µM (active), the EC50 (Streptococcus) was 3.2 µM (active) and the IC50 [4] was 4.37 µM (active). For the same molecule, the EC50 [5] was 28.3 µM (active).

With `O=C1Nc2ccccc2/C1=C1/Nc2ccc(Br)cc2/C1=N\O` the IC50 (Danio rerio) was > 10 µM (not active).

For `O=C(Nc1ccc2oc(=O)ccc2c1)c1cc2ccccc2o1`, the EC50 [6] was 0.304 µM (active), the EC50 [7] was 0.579 µM (active) and the EC50 (H4) was > 120 µM (not active). The EC50 [8] was 0.317 µM (active) and the EC50 [9] was < 0.1 µM (active).

With `O=C(O)c1ccccc1C(=O)NNc1ccc(Cl)cc1Cl` the IC50 [10] was > 100 µM (active).

For `CC1=C/C(=N\OS(=O)(=O)c2ccccc2)C(C(C)C)=CC1=O`, the EC50 (Galanin receptor type 2) was > 55.7 µM (not active), the AC50 [11] was 0.751 µM (active) and the IC50 (Large T antigen) was 48.2 µM (active). The EC50 [12] was 2.93 µM (active), the IC50 [13] was 6.04 µM (active) and the EC50 [14] was 3.13 µM (active). The AC50 (INS1) was 3.88 µM (active).
